Converted amounts (≈) assume the structure as drawn.
How the values were obtained:
[1] = cited from earlier work
[2] = Recrystallisation of nevirapine from water-ethanol co-solvent systems: crystal form and crystal habit; format: physicochemical
[3] = EtOH:H2O 90:0 ml, water content 0 % v/v
[4] = EtOH:H2O 90:4.7 ml, water content 5 % v/v
[5] = EtOH:H2O 90:22.5 ml, water content 20 % v/v
[6] = EtOH:H2O 90:38.6 ml, water content 30 % v/v
[7] = EtOH:H2O 90:60 ml, water content 40 % v/v
[8] = EtOH:H2O 90:90 ml, water content 50 % v/v
[9] = EtOH:H2O 90:135 ml, water content 60 % v/v
[10] = EtOH:H2O 90:210 ml, water content 70 % v/v
[11] = EtOH:H2O 90:360 ml, water content 80 % v/v

Crystal Habit ([2]; EtOH:H2O 90:0 ml (so in the source), water content 10 % v/v)	Crystal Habit [2, 3]	Nevirapine Form Obtained [2, 3]	Crystal Habit [2, 4]	Nevirapine Form Obtained [2, 4]	Crystal Habit [2, 5]	Nevirapine Form Obtained [2, 5]	Crystal Habit [2, 6]	Nevirapine Form Obtained [2, 6]	Crystal Habit [2, 7]	Nevirapine Form Obtained [2, 7]	Crystal Habit [2, 8]	Nevirapine Form Obtained [2, 8]	Crystal Habit [2, 9]	Nevirapine Form Obtained [2, 9]	Crystal Habit [2, 10]	Nevirapine Form Obtained [2, 10]	Crystal Habit [2, 11]	Nevirapine Form Obtained [2, 11]	Structure (SMILES)	solubility in water [1] [µg/mL]
–	–	–	–	–	–	–	–	–	–	–	–	–	–	–	–	–	–	–	Nc1ncnc2c1ncn2CCOCP(=O)(O)O [Adefonir]	400 (≈ 1460 µM)
Very small tabular	Tabular crystals	Hemi-Ethanolate	Smaller tabular	Hemi-Ethanolate	Disorganized	Hemi-Hydrate	Disorganized	Hemi-Hydrate	Columnar clusters	Hemi-Hydrate	Platy clusters	Hemi-Hydrate	Platy crystals	Hemi-Hydrate	Platy crystals	Hemi-Hydrate	Very small bladed	Anhydrous	Cc1ccnc2c1NC(=O)c1cccnc1N2C1CC1 [nevirapine]	–
